These compounds were tested on PDE1 (assay: In vitro HTRF PDE1 inhibition assay). Settings: HTRF cGMP assay, 100 nM cyclic GMP, PDE (1A3, 1B or 1C) with calmodulin, 45 minutes at 37° C.; isoform of the tabulated values not stated.
Format: biochemical
Source text: An exemplary procedure for the in vitro Homogenous Time Resolved Fluorescence assay, which can be used to determine the inhibitory action of compounds of the invention toward. PDE1 or its isoforms, follows.
The HTRF PDE1 assay utilized the HTRF (Homogenous Time Resolved Fluorescence) technology, which is based on the competition between unlabeled cyclic nucleotide and cyclic nucleotide labeled with XL665 for the binding to cyclic nucleotide-specific antibody labeled with cryptate. The HTRF signal is thus inversely proportional to the concentration of cyclic nucleotide being measured. Since phosphodiesterases break down cyclic nucleotides the HTRF signal was used to determine PDE activity.
The Cisbio cGMP HTRF assay kit (Cat no: 62GM2PEC) was utilized. Cyclic GMP was diluted to 200 nM in HTRF assay buffer (1 mM CaCl2, 10 mM MgCl2, 10 mM Tris-HCl, 0.1% BSA, pH7.4). 10 μl of compound or DMSO was diluted in 200 nM cyclic GMP solution and added to wells of a 96 well white plate to give 100 nM cyclic GMP in 1% DMSO final concentration. PDE (1A3, 1B or 1C) was diluted to 2× working concentration in HTRF assay buffer with […] Calmodulin, and 10 μl was added to initiate the reaction. The plate was then incubated for 45 minutes at 37° C. d2-Labelled cyclic GMP and anti-cGMP cryptate were diluted in 50 mM phosphate buffer, 0.8M KF, 1% Triton X100, 0.2% BSA, pH7.0. Following incubation 10 μl d2-cGMP, then 10 μl anti cGMP cryptate were added to each well and the plate was incubated for 45 minutes at room temperature. The plate was then read on Perkin Elmer Victor at 2 different FRET readings ex/emm 340 nm/665 nm and 340 nm/615 nm.
Compounds having an IC50 of <1 μM, are denoted as +++. Compounds having an IC50 of 1-10 μM, are denoted as ++. Compounds having an IC50 of >10 μM, are denoted as +.

Row | SMILES | IC50 [µM]
1 | CCC1Cn2c(nc3c(cnn3C(C)C)c2=O)CN1Cc1ccc(OC)cc1 (racemic) [Compound I-153, (±)-7-Ethyl-1-isopropyl-8-(4-methoxybenzyl)-6,7,8,9-tetrahydropyrazino[1,2-a]pyrazolo[3,4-a]pyrimidin-4(1H)-one] | 1 to 10
2 | CCC1Cn2c(nc3c(cnn3C(C)C)c2=O)CN1Cc1ccc(Cl)cc1 (racemic) [Compound I-154, (±)-8-(4-Chlorobenzyl)-7-ethyl-1-isopropyl-6,7,8,9-tetrahydropyrazino[1,2-a]pyrazolo[3,4-d]pyrimidin-4(1H)-one] | 1 to 10
3 | CCC1Cn2c(nc3c(cnn3C(C)C)c2=O)CN1c1ccc(Cl)cc1 (racemic) [Compound I-155, (±)-8-(4-Chlorophenyl)-7-ethyl-1-isopropyl-6,7,8,9-tetrahydropyrazino[1,2-a]pyrazolo[3,4-d]pyrimidin-4(1H)-one] | 1 to 10
4 | CC(C)CC1Cn2c(nc3c(cnn3C(C)C)c2=O)CN1c1ccc(Cl)cc1 (racemic) [Compound I-172, (±)-8-(4-Chlorophenyl)-7-isobutyl-1-isopropyl-6,7,8,9-tetrahydropyrazino[1,2-a]pyrazolo[3,4-d]pyrimidin-4(1H)-one] | < 1
5 | O=c1c2cnn(C3CCOC3)c2nc2n1CCN(c1ccccc1)C2 (racemic) [Compound I-216, (±)-8-Phenyl-1-(tetrahydrofuran-3-yl)-6,7,8,9-tetrahydropyrazino[1,2-a]pyrazolo[3,4-d]pyrimidin-4(1H)-one] | 1 to 10
6 | O=c1c2cnn(C3CCOC3)c2nc2n1CCN(c1ccc(Cl)cc1)C2 (racemic) [Compound I-217, (±)-8-(4-Chlorophenyl)-1-(tetrahydrofuran-3-yl)-6,7,8,9-tetrahydropyrazino[1,2-a]pyrazolo[3,4-d]pyrimidin-4(1H)-one] | < 1
7 | O=c1c2cnn(C3CCOC3)c2nc2n1CCN(Cc1ccccc1)C2 (racemic) [Compound I-218, (±)-8-Benzyl-1-(tetrahydrofuran-3-yl)-6,7,8,9-tetrahydropyrazino[1,2-a]pyrazolo[3,4-d]pyrimidin-4(1H)-one] | 1 to 10
8 | COc1ccc(CN2CCn3c(nc4c(cnn4C4CCOC4)c3=O)C2)cc1 (racemic) [Compound I-219, (±)-8-(4-methoxybenzyl)-1-(tetrahydrofuran-3-yl)-6,7,8,9-tetrahydropyrazino[1,2-a]pyrazolo[3,4-d]pyrimidin-4(1H)-one] | > 10
9 | O=c1c2cnn(C3CCOC3)c2nc2n1CCN(Cc1ccc(Cl)cc1)C2 (racemic) [Compound I-220, (±)-8-(4-Chlorobenzyl)-1-(tetrahydrofuran-3-yl)-6,7,8,9-tetrahydropyrazino[1,2-a]pyrazolo[3,4-d]pyrimidin-4(1H)-one] | 1 to 10
10 | O=c1c2cnc(C3CCOC3)n2nc2n1CCN(c1ccccc1)C2 (racemic) [Compound I-229, (±)-7-Phenyl-3-(tetrahydrofuran-3-yl)-8,9-dihydro-6H-imidazo[5,1-f]pyrazino[2,1-c][1,2,4]triazin-11(7H)-one] | < 1
11 | O=c1c2cnc(C3CCOC3)n2nc2n1CCN(Cc1ccccc1)C2 (racemic) [Compound I-231, (±)-7-Benzyl-3-(tetrahydrofuran-3-yl)-8,9-dihydro-6H-imidazo[5,1-f]pyrazino[2,1-c][1,2,4]triazin-11(7H)-one] | < 1
12 | COc1ccc(CN2CCn3c(nn4c(C5CCOC5)ncc4c3=O)C2)cc1 (racemic) [Compound I-232, (±)-7-(4-Methoxybenzyl)-3-(tetrahydrofuran-3-yl)-8,9-dihydro-6H-imidazo[5,1-f]pyrazino[2,1-c][1,2,4]triazin-11(7H)-one] | 1 to 10
13 | O=c1c2cnc(C3CCOC3)n2nc2n1CCN(Cc1ccc(Cl)cc1)C2 (racemic) [Compound I-233, (±)-7-(4-Chlorobenzyl)-3-(tetrahydrofuran-3-yl)-8,9-dihydro-6H-imidazo[5,1-f]pyrazino[2,1-c][1,2,4]triazin-11(7H)-one] | 1 to 10
14 | CC(C)n1ncc2c(=O)n3c(nc21)CNCC3 [Compound I-1, 1-Isopropyl-6,7,8,9-tetrahydropyrazino[1,2-a]pyrazolo[3,4-d]pyrimidin-4(1H)-one] | > 10
15 | O=c1c2cnn(-c3ccccc3)c2nc2n1CCNC2 [Compound I-2, 1-Phenyl-6,7,8,9-tetrahydropyrazino[1,2-a]pyrazolo[3,4-d]pyrimidin-4(1H)-one] | > 10
16 | CC(C)c1n[nH]c2c(=O)n3c(nc12)CNCC3 [Compound I-10, 3-Isopropyl-5,6,7,8-tetrahydropyrazino[1,2-a]pyrazolo[4,3-a]pyrimidin-10(1H)-one] | > 10
17 | CC(C)c1nn(C)c2c(=O)n3c(nc12)CNCC3 [Compound I-13, 3-Isopropyl-1-methyl-5,6,7,8-tetrahydropyrazino[1,2-a]pyrazolo[4,3-d]pyrimidin-10(1H)-one] | > 10

Row | SMILES | IC50 [µM]
18 | O=c1c2c(Nc3ccccc3)n[nH]c2nc2n1CCNC2 [Compound I-16, 3-(Phenylamino)-6,7,8,9-tetrahydropyrazino[1,2-a]pyrazolo[3,4-d]pyrimidin-4(1H)-one] | > 10
19 | CN1CCn2c(nc3c(cnn3C)c2=O)C1 [Compound I-17, 1,8-Dimethyl-6,7,8,9-tetrahydropyrazino[1,2-a]pyrazolo[3,4-d]pyrimidin-4(1H)-one] | > 10
20 | CC(C)n1ncc2c(=O)n3c(nc21)CN(C)CC3 [Compound I-18, 1-Isopropyl-8-methyl-6,7,8,9-tetrahydropyrazino[1,2-a]pyrazolo[3,4-d]pyrimidin-4(1H)-one] | > 10
21 | CN1CCn2c(nc3c(cnn3-c3ccccc3)c2=O)C1 [Compound I-19, 8-Methyl-1-phenyl-6,7,8,9-tetrahydropyrazino[1,2-a]pyrazolo[3,4-d]pyrimidin-4(1H)-one] | > 10
22 | O=c1c2cn[nH]c2nc2n1CCN(Cc1ccccc1)C2 [Compound I-27, 8-Benzyl-6,7,8,9-tetrahydropyrazino[1,2-a]pyrazolo[3,4-d]pyrimidin-4(1H)-one] | > 10
23 | Cn1ncc2c(=O)n3c(nc21)CN(Cc1ccccc1)CC3 [Compound I-28, 8-Benzyl-1-methyl-6,7,8,9-tetrahydropyrazino[1,2-a]pyrazolo[3,4-d]pyrimidin-4(1H)-one] | > 10
24 | CC(C)n1ncc2c(=O)n3c(nc21)CN(Cc1ccccc1)CC3 [Compound I-29, 8-Benzyl-1-isopropyl-6,7,8,9-tetrahydropyrazino[1,2-a]pyrazolo[3,4-d]pyrimidin-4(1H)-one] | 1 to 10
25 | O=c1c2cnn(-c3ccccc3)c2nc2n1CCN(Cc1ccccc1)C2 [Compound I-30, 8-Benzyl-1-phenyl-6,7,8,9-tetrahydropyrazino[1,2-a]pyrazolo[3,4-d]pyrimidin-4(1H)-one] | > 10
26 | CC(C)c1nn(C)c2c(=O)n3c(nc12)CN(C)CC3 [Compound I-40, 3-Isopropyl-1,6-dimethyl-5,6,7,8-tetrahydropyrazino[1,2-a]pyrazolo[4,3-d]pyrimidin-10(1H)-one] | > 10
27 | CC(C)c1n[nH]c2c(=O)n3c(nc12)CN(Cc1ccccc1)CC3 [Compound I-43, 6-Benzyl-3-isopropyl-5,6,7,8-tetrahydropyrazino[1,2-a]pyrazolo[4,3-d]pyrimidin-10(1H)-one] | > 10
28 | CC(C)c1nn(C)c2c(=O)n3c(nc12)CN(Cc1ccccc1)CC3 [Compound I-46, 6-Benzyl-3-isopropyl-1-methyl-5,6,7,8-tetrahydropyrazino[1,2-a]pyrazolo[4,3-d]pyrimidin-10(1H)-one] | > 10
29 | CN1CCn2c(nc3[nH]nc(Nc4ccccc4)c3c2=O)C1 [Compound I-49, 8-Methyl-3-(phenylamino)-6,7,8,9-tetrahydropyrazino[1,2-a]pyrazolo[3,4-d]pyrimidin-4(1H)-one] | > 10
30 | O=c1c2c(Nc3ccccc3)n[nH]c2nc2n1CCN(Cc1ccccc1)C2 [Compound I-50] | > 10
31 | CC(C)Cn1ncc2c(=O)n3c(nc21)CN(Cc1ccccc1)CC3 [Compound I-51, 8-Benzyl-1-isobutyl-6,7,8,9-tetrahydropyrazino[1,2-a]pyrazolo[3,4-d]pyrimidin-4(1H)-one] | 1 to 10
32 | O=c1c2cnn(C3CCCC3)c2nc2n1CCN(Cc1ccccc1)C2 [Compound I-52, 8-Benzyl-1-cyclopentyl-6,7,8,9-tetrahydropyrazino[1,2-a]pyrazolo[3,4-d]pyrimidin-4(1H)-one] | 1 to 10
33 | O=c1c2cnn(C3CC3)c2nc2n1CCN(Cc1ccccc1)C2 [Compound I-53, 8-Benzyl-1-cyclopropyl-6,7,8,9-tetrahydropyrazino[1,2-a]pyrazolo[3,4-d]pyrimidin-4(1H)-one] | > 10
34 | CCCn1ncc2c(=O)n3c(nc21)CN(Cc1ccccc1)CC3 [Compound I-54, 8-Benzyl-1-propyl-6,7,8,9-tetrahydropyrazino[1,2-a]pyrazolo[3,4-d]pyrimidin-4(1H)-one] | 1 to 10
